Source: BindingDB's records for doi:10.1016/s0960-894x(98)00641-6 (Kwansei Gakuin University, 1999)
pIC50: −log10 of the molar value.

Assay: Compound was tested for inhibitory activity against type II Phospholipase A2 (PLA2) isolated from japanese mamushi (Agkistrodon halys blomhoffii) venom

SMILES	pIC50
CCCCCCCCCCCC(=O)N[C@H](CCCC)COP(=O)([O-])OCC[N+](C)(C)C [(2-{[2-((S)-Dodecanoylamino)-hexyloxy]-hydroxy-phosphoryloxy}-ethyl)-trimethyl-ammonium]	5.28
CCCCCCCCCCCC(=O)N1C(=O)O[C@@H](COP(=O)([O-])OCC[N+](C)(C)C)[C@H]1CCC [{2-[((4R,5S)-3-Dodecanoyl-2-oxo-4-propyl-oxazolidin-5-ylmethoxy)-hydroxy-phosphoryloxy]-ethyl}-trimethyl-ammonium]	4.34
CCCCCCCCCCCC(=O)N1C(=O)O[C@H](COP(=O)([O-])OCC[N+](C)(C)C)[C@H]1CCC [{2-[((4R,5S)-3-Dodecanoyl-2-oxo-4-propyl-oxazolidin-5-ylmethoxy)-hydroxy-phosphoryloxy]-ethyl}-trimethyl-ammonium]	4.70
CCCCCCCCCCCC(=O)N1C(=O)O[C@H](COP(=O)([O-])OCC[N+](C)(C)C)[C@@H]1CCC [{2-[((4S,5R)-3-Dodecanoyl-2-oxo-4-propyl-oxazolidin-5-ylmethoxy)-hydroxy-phosphoryloxy]-ethyl}-trimethyl-ammonium]	4.28
CCCCCCCCCCCC(=O)N1C(=O)O[C@@H](COP(=O)([O-])OCC[N+](C)(C)C)[C@@H]1CCC [{2-[((4S,5S)-3-Dodecanoyl-2-oxo-4-propyl-oxazolidin-5-ylmethoxy)-hydroxy-phosphoryloxy]-ethyl}-trimethyl-ammonium]	4.40
CCCCCCCCCCCC(=O)N1C(=O)OC[C@@H]1COP(=O)([O-])OCC[N+](C)(C)C [{2-[((R)-3-Dodecanoyl-2-oxo-oxazolidin-4-ylmethoxy)-hydroxy-phosphoryloxy]-ethyl}-trimethyl-ammonium]	4.50
